Holding throughout (settings): human
Series [1] concerns Ovary OVCAR-5.
The subject of series [2] is Colon HCT-15.
Series [3] relates to Neuroblastoma IMR-32.
Series [4] has as its system Lung A-549.
In series [5] the test system is Colon 502713.
The test system of series [6] is Liver HEP-2.

Consider `COc1cc2c(cc1OCCCCN1CCN(C(=S)SCCC(C#N)(c3ccccc3)c3ccccc3)CC1)N=C[C@@H]1CCCN1C2=O` [Compound 12c, 3-cyano-3,3-diphenylpropyl 4-(4-[(11aS)-7-(methyloxy)-5-oxo-2,3,5,11a-tetrahydro-1H-benzo[e]pyrrolo[1,2-a][1,4]diazepin-8-yl]oxybutyl)hexahydro-1-pyrazinecarbodithioate], for which the Preliminary in vitro cytotoxicity data in series [1] was found to be 24%; in series [2], 75%; in series [3], 88; in series [4], 31%; in series [5], 75%; in series [6], 69%.

These data come from patent US8592407B2, “Pyrrolo[2,1-c][1,4] benzodiazepine derivatives with dithiocarbamate side chains and process for the preparation thereof” (Council of Scientific & Industrial Research, priority 2008, dated 2013).
